{"source": "patent US9597377B2", "about": "“Stable formulations of purified proteins” (MOUNT SINAI SCHOOL OF MEDICINE OF NEW YORK UNIVERSITY, priority 2003, dated 2017)", "origin": "cited, not measured here", "key": {"[1]": {"test_system": "lymphoblasts established from Fabry patients with R301Q or Q279E mutations", "details": "cited from earlier work"}, "mutant α-Gal A (R301Q)": {"molecular_target": "T1, mutant α-Gal A (R301Q) (Homo sapiens, UniProt P06280, R301Q)", "T1 sequence (P06280 32-429 R301Q)": "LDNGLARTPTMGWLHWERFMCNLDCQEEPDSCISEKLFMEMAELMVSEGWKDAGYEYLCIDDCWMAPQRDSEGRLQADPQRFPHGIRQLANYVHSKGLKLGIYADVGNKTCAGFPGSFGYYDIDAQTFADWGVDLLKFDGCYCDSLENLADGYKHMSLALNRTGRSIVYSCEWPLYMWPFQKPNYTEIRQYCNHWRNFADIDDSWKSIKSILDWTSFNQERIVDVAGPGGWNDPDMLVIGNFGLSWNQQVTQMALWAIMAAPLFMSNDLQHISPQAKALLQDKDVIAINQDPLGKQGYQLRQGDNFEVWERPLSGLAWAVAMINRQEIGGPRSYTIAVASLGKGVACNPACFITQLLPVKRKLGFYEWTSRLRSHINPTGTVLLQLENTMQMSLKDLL", "details": "neutral pH; cited from earlier work"}, "[2]": {"molecular_target": "T2, wild-type α-Gal A in COS-7 cells (Homo sapiens, UniProt P06280)", "T2 construct": "expressed in transfected cells; host or cells: COS-7 cells", "T2 sequence (P06280 32-429)": "T1 sequence (P06280 32-429 R301Q) with Q270R", "details": "COS-7 cells transfected with vector coding wild-type α-Gal A; cited from earlier work"}, "mutant (R301Q) α-Gal A": {"molecular_target": "T3, mutant (R301Q) α-Gal A (Homo sapiens, UniProt P06280, R301Q)", "T3 construct": "host or cells: transgenic mice overexpressing the mutant enzyme; activity measured in major organs", "T3 sequence (P06280 32-429 R301Q)": "T1 sequence (P06280 32-429 R301Q)", "details": "oral administration, transgenic mice overexpressing mutant (R301Q) α-Gal A; cited from earlier work"}}, "note": "Changes are numbered by the printed parent chain."}
{"smiles": "OC[C@H]1NC[C@H](O)[C@@H](O)[C@H]1O", "note": "[DGJ, 1-deoxygalactonojirimycin]", "values": [{"measurement": "mutant enzyme activity in lymphoblasts", "setting": "[1]", "result": "enhanced the mutant enzyme activity"}, {"measurement": "in vitro stability of mutant α-Gal A (R301Q)", "setting": "mutant α-Gal A (R301Q)", "result": "effectively increased in vitro stability"}, {"measurement": "amount and activity of wild-type α-Gal A", "setting": "[2]", "result": "increase the amount and activity"}, {"measurement": "enzyme activity in major organs", "setting": "mutant (R301Q) α-Gal A", "result": "substantially elevated the enzyme activity"}]}
